Test results taken from patent publication US5132291A, “Antivirals and methods for increasing the antiviral activity of AZT” (priority 1989, dated 1992).

How the values were obtained:
WI-L2 cells = test: Lymphoblast assay, effects on cell growth, WI-L2 B-cell line; format: cell-based; details: AICA riboside alone, up to 500 μM
Protocol: Several lymphoblast lines were utilized in conjunction with varying doses of antiviral agents to determine their effects on cell growth. In this method a daily cell count over a period of time, post-addition of antiviral compounds, can be compared with the normal cell growth curve.
Two representative T-cell lines, SupT-1 and CEM, and a B-cell line, WI-L2, were grown to mid-log phase 5×10^5 cells/ml in 50 ml of RPMI 1640 (Irvine Scientific) supplemented with 10% heat-inactivated fetal calf serum (Gemini-Bioproducts) and 1% glutamine (Gibco) to standardize seeding conditions and to assure a population of logarithmically growing cells.
An appropriate number cf T-25 flasks (Corning) were seeded with evenly suspended cells at 0.5×10^5 cells/ml in 20 ml of fresh growth media. Including a control condition, each set of flasks was treated with a dose range of antiviral compound for each cell line. Each dose condition was repeated in triplicate. All flasks were incubated for 5 days at 37° C. in a 5% CO2 incubator.
Every 24 hours for 5 days, three 0.2 ml samples of each flask were diluted in 9.8 ml of isoton (Fisher Scientific) and counted on a cell counter (Coulter Co.). The average of each flask was recorded, and the average of each triplicate antiviral does was then averaged and recorded.

HIV-1 = test: HIV syncitial forming assay using CEM-SS cells; format: cell-based
Description: The following cytomorphologic infectivity bioassay was used to characterize antiviral activity against HIV-1. In the following assay a single infectious unit of virus infects a single cell and initiates a focal expression of that infection, i.e., a syncitium. Since a single infectious unit leads to a discrete response, a linear relationship exists between the number of virally-induced cytopathic effects and the first order of virus concentration. Application of this procedure in assays for virus inactivation allows for evaluation of the candidate antiviral agent.
CEM-SS (syncitium-sensitive Leu 3a-positive CEM cell line) cells were grown in RPMI 1640 cell culture media (Irvine Scientific) supplemented with 10% heat-inactivated fetal bovine serum (Gemini Bioproducts) and 1% […] glutamine (Gibco). Log-phase cells were split 1:2 with the growth medium the day prior to setting up the assay to standardize plating conditions and to assure a population of logarithmically growing cells. Ninety-six-well plates (Costar) were pretreated with 50 μl of 50 μg/ml poly-1-lysine (MW=295,000 Sigma) "PLL") and were left at room temperature for 60 minutes. Residual PLL was removed with two washes of PBS. The plates were stored in the incubator until used.
On the day of the assay, the cells were counted and enough cells were harvested to plate each well with 5.0×10^4 cells per well in a volume of 200 μl (or 20 ml of […] was appropriate for each 96-well microtitre plate).
The cells were plated out on the PLL pre-treated microtitre plates at 5.0×10^4 cells/well in a volume of 200 μl. After allowing attachment for 30 minutes at 37° C. and 5% CO2, the antiviral agent(s) were added in the noted amounts and the treated plates were pre-incubated for 24 hours.
The HIV-1 virus stock (isolated from infected H-9 cells) was diluted in growth medium to yield 100 SFU (syncytial-forming units) per well. Diluted HIV-1 virus, 20 μl, was added to appropriate wells. All the plates were then incubated for 5 days at 37° C. and 5% CO2. On day 5 post-infection, the cells were given a 100 μl media change. […]

NC(=O)c1ncn([C@@H]2O[C@H](CO)[C@@H](O)[C@H]2O)c1N [AICA riboside, 5-amino-1-β-D-ribofuranosyl-imidazole-4-carboxamide]
effect on WI-L2 (B-cell) growth (WI-L2 cells): no effect | antiviral effect (number of syncitia) (HIV-1; AICA riboside 5 μM and 50 μM, 24 hour preincubation before HIV infection): antiviral effect | antiviral effect with preincubation versus addition at the time of infection (HIV-1; CEM cells, HIV): more effective as an antiviral with preincubation
